Entries after “also recorded” stand apart in the source; their conditions may differ.
Legend:
Breast Cancer: MCF-7 = experiment: PI staining and pRB-780 immunoblot, MCF-7; assay type: cell-based; conditions: PI staining and WB: P-RB-780
Procedure: (§1) Table 2: Experimental Procedures: sensitivity to CDK6 kinase activity inhibition was tested by incubating different cell lines in the presence of CDK6 inhibitor GD007/PBS for either 24 hours for detecting the status of pRB-780 phosphorylation, or 5 days for determining the effect of GD007 on cell proliferation. (1) By immunoblotting (WB), we will detect phospho-pRB-S^780, one of the substrates of CDK6 kinase; (2) By using FACS analysis, we will stain treated cells with Propidium Iodide (PI), a commonly used fluorescent intercalator, to measure the subpopulation of cell cycle to reveal any impact of CDK6 inhibition on cell proliferation; (3) cell numbers will be counted using hemocytometer.

[1] = test system: phosphorylated pRB at SER-780 in MDA-MB231 cells; experiment: Immunoblot of phosphorylated pRB (SER-780) and PI staining, MDA-MB231; assay type: cell-based
Procedure: FIG. 5A is an image of a representative immunoblot showing the levels of phosphorylated pRB at SER-780 in MDA-MB231 and HPBALL cells following treatment of these cells with a vehicle, PD, or compound GD for 24 hours. Tubulin was used as loading control.
as §1

[2] = test system: phosphorylated pRB at SER-780 in HELA cells; experiment: Immunoblot of phosphorylated pRB (SER-780), HELA; assay type: cell-based
Procedure: FIG. 5E is an image of a representative immunoblot showing the levels of phosphorylated pRB at SER-780 in HELA cells following treatment of these cells with a vehicle, PD, or compound GD for 24 hours. Tubulin was used as loading control.
as §1

[3] = test system: A549 (lung cancer cells) xenograft tumors; experiment: A549 xenograft mouse model; assay type: in vivo; conditions: female Nod/Scid mice
Procedure: A549 cells (3×10^5/each side) were inoculated ectopically in female Nod/Scid mice. One week after inoculation, tumor bearing mice were treated with GD at 200 mg/kg/day or PBS by oral gavage for 21 days. Data shown are mean±S.D. (n=8 for each group), *p<0.05, t-test, GD vs. PBS.
FIG. 10B is a graph showing body weight of two groups of mice during the observation time. Body weights shown are mean±S.D. (n=4 for each group).
We examined the therapeutic efficacy of GD against A549 (lung cancer cells) xenograft tumors. A549 cells (3×10^5 per side in 100 μl of 50% Matrigel) were inoculated ectopically in female Nod/Scid mice on both sides. When tumor sizes reached ˜50 mm^3, animals were divided into 2 groups (n=4 mice per group), and treated with PBS or GD at dose of 200 mg/kg/day over a 21-day period (Kwapisz, supra).
Tumor sizes were measured with standard calipers every day and tumor volumes were calculated using standard methods (caliper measurements are commonly collected along the longest two dimensions of the tumor x/y plane only, with the z-axis dimension assumed to be the same as the shortest dimension) (Tomayko et al., Cancer Chemother. Pharmacol. 24:148-154, 1989). Weekly body weights were measured at designed times. At the end of the experiments, all of the tumors were isolated from the mice and weighed.

## CC(=O)c1c(C)c2cnc(Nc3nc(CN4CCNCC4)cs3)nc2[nH]c1=O [Compound GD, 6-acetyl-5-methyl-2-((4-(piperazin-1-ylmethyl)thiazol-2-yl)amino)pyrido[2,3-d]pyrimidin-7(8H)-one]
Breast Cancer: MCF-7
  Compound GD Efficacy: No
[1]; MDA-MB231, PI staining and WB: P-RB-780
  Compound GD Efficacy: Efficacious
[1]; breast cancer cell line MDA-MB231, 24 hours
  pRB phosphorylation: inhibits pRB phosphorylation
[2]; Cervical Cancer: Hela, WB: P-RB-780
  Compound GD Efficacy: Efficacious
[2]; cervical cancer cell line (Hela cells), 24 hours
  pRB phosphorylation: inhibits pRB phosphorylation
[3]; 200 mg/kg/day for 21 days, end of experiment, FIGS. 10D-10E
  tumor weights vs PBS: reduced; also recorded: decreased tumor weights
[3]; 200 mg/kg/day oral gavage for 21 days, FIG. 10A
  tumor volumes (xenograft tumor growth) vs PBS: reduced; also recorded: suppressed xenograft tumor growth
